Test results published in patent US10730872B2, “Pesticidally active heterocyclic derivatives with sulphur containing sustitutents” (SYNGENTA PARTICIPATIONS AG, priority 2015, dated 2020).

Key:
Format in all cases: in vivo
[1] = test system: Plutella xylostella; test: Plutella xylostella (Diamond Back Moth); conditions: 120 h, application rate of 200 ppm, artificial diet, L2 larvae, 5 days after infestation, read-out: effect in at least one of the two categories (mortality or growth inhibition)
Method: (§1) 24-well microtiter plates with artificial diet were treated with aqueous test solutions prepared from 10,000 ppm DMSO stock solutions by pipetting. After drying, the plates were infested with L2 larvae (10 to 15 per well). The samples were assessed for mortality and growth inhibition in comparison to untreated samples 5 days after infestation.

[2] = test system: Myzus persicae; test: Myzus persicae (Green Peach Aphid). Systemic Activity; conditions: 144 h, test rate of 24 ppm, roots of infested pea seedlings in test solution, 6 days
Method: Roots of pea seedlings infested with an aphid population of mixed ages were placed directly into aqueous test solutions prepared from 10,000 DMSO stock solutions. The samples were assessed for mortality 6 days after placing seedlings into test solutions.

[3] = test system: Spodoptera littoralis; test: Spodoptera littoralis (Egyptian Cotton Leaf Worm), sprayed cotton leaf discs; conditions: foliar, 72 h, application rate of 200 ppm, L1 larvae, 3 days after infestation
Method: Cotton leaf discs were placed onto agar in 24-well microtiter plates and sprayed with aqueous test solutions prepared from 10,000 ppm DMSO stock solutions. After drying the leaf discs were infested with five L1 larvae. The samples were assessed for mortality, anti-feeding effect, and growth inhibition in comparison to untreated samples 3 days after infestation. Control of Spodoptera littoralis by a test sample is given when at least one of the categories mortality, anti-feedant effect, and growth inhibition is higher than the untreated sample.

[4] = test system: Euschistus heros; test: Euschistus heros (Neotropical Brown Stink Bug); conditions: 120 h, application rate of 200 ppm, sprayed soybean leaves, N2 nymphs, 5 days after infestation, read-out: effect in at least one of the two categories (mortality or growth inhibition)
Method: Soybean leaves on agar in 24-well microtiter plates were sprayed with aqueous test solutions prepared from 10,000 ppm DMSO stock solutions. After drying the leaves were infested with N2 nymphs. The samples were assessed for mortality and growth inhibition in comparison to untreated samples 5 days after infestation.

[5] = test system: Bemisia tabaci; test: Bemisia tabaci (Cotton White Fly): Feeding/Contact Activity; conditions: foliar, 144 h, application rate of 200 ppm, sprayed cotton leaf discs, adult white flies, 6 days after incubation
Method: Cotton leaf discs were placed on agar in 24-well microtiter plates and sprayed with aqueous test solutions prepared from 10,000 ppm DMSO stock solutions. After drying the leaf discs were infested with adult white flies. The samples were checked for mortality 6 days after incubation.

[6] = test system: Diabrotica balteata; test: Diabrotica balteata (Corn Root Worm); conditions: 96 h, application rate of 200 ppm, sprayed maize sprouts, L2 larvae, 4 days after infestation, read-out: effect in at least one of the two categories (mortality or growth inhibition)
Method: as §1, with “Maize sprouts placed onto an agar layer in 24-well” for “24-well”, “plates” for “plates with artificial diet”, “spraying.” for “pipetting.”, “(6” for “(10”, “10” for “15”, “4” for “5”

[7] = test system: Tetranychus urticae; test: Tetranychus urticae (Two-Spotted Spider Mite): Feeding/Contact Activity; conditions: foliar, 192 h, application rate of 200 ppm, sprayed bean leaf discs, mixed population (mobile stages), 8 days after infestation
Method: Bean leaf discs on agar in 24-well microtiter plates were sprayed with aqueous test solutions prepared from 10,000 ppm DMSO stock solutions. After drying the leaf discs were infested with a mite population of mixed ages. The samples were assessed for mortality on mixed population (mobile stages) 8 days after infestation.

[8] = test system: Myzus persicae; test: Myzus persicae (Green Peach Aphid): Feeding/Contact Activity; conditions: foliar, 144 h, application rate of 200 ppm, sprayed sunflower leaf discs, aphid population of mixed ages, 6 days after infestation
Method: Sunflower leaf discs were placed onto agar in a 24-well microtiter plate and sprayed with aqueous test solutions prepared from 10,000 ppm DMSO stock solutions. After drying, the leaf discs were infested with an aphid population of mixed ages. The samples were assessed for mortality 6 days after infestation.

[9] = test system: Spodoptera littoralis; test: Spodoptera littoralis (Egyptian Cotton Leaf Worm), uptake by lettuce roots from agar; conditions: 144 h, test rate of 12.5 ppm, mixed with agar, absorbed by lettuce roots, Spodoptera eggs, 6 days after infestation, read-out: effect in at least one of the three categories (mortality, anti-feeding, or growth inhibition)
Source text: Test compounds were applied by pipette from 10,000 ppm DMSO stock solutions into 24-well plates and mixed with agar. Lettuce seeds were placed onto the agar and the multi well plate was closed by another plate which contained also agar. After 7 days the compound was absorbed by the roots and the lettuce grew into the lid plate. The lettuce leaves were then cut off into the lid plate. Spodoptera eggs were pipetted through a plastic stencil onto a humid gel blotting paper and the lid plate was closed with it. The samples were assessed for mortality, anti-feedant effect and growth inhibition in comparison to untreated samples 6 days after infestation.

[10] = test system: Aedes aegypti; test: Aedes Aegypti (Yellow Fever Mosquito); conditions: 200 ppm in ethanol, dry deposit in 12 well plates, adult females, after 48 h and/or 24 h
Method: Test solutions, at an application rate of 200 ppm in ethanol, were applied to 12 well tissue culture plates. Once the deposits were dry, five, two to five day old adult female Aedes aegypti were added to each well, and sustained with a 10% sucrose solution in a cotton wool plug. Assessment of knockdown was made one hour after introduction, and mortality was assessed at 24 and 48 hours after introduction.

CCn1c(C(F)(F)F)cc2nc(-c3nc(N)c(C4CC4)cc3S(=O)(=O)CC)n(C)c2c1=O [Compound A71]
≥ 80%: percent effect (mortality or growth inhibition) at 200 ppm [1] | mortality at 24 ppm [2] | percent control (mortality, anti-feeding effect or growth inhibition) at 200 ppm [3] | percent effect (mortality or growth inhibition) at 200 ppm [4] | mortality at 200 ppm [5] | effect mortality or growth inhibition at 200 ppm [6] | mortality at 200 ppm [7] | mortality at 200 ppm [8]

CCn1c(C(F)(F)F)cc2nc(-c3nc(N)c(Br)cc3S(=O)(=O)CC)n(C)c2c1=O [Compound A39, 2-(6-amino-5-bromo-3-ethylsulfonyl-2-pyridyl)-5-ethyl-3-methyl-6-(trifluoromethyl)imidazo[4,5-c]pyridin-4-one]
≥ 80%: percent effect (mortality or growth inhibition) at 200 ppm [1] | percent control (mortality, anti-feeding effect or growth inhibition) at 200 ppm [3] | percent effect (mortality, anti-feeding or growth inhibition) at 12.5 ppm [9] | pest or weed control at 200 ppm [10] | percent effect (mortality or growth inhibition) at 200 ppm [4] | mortality at 200 ppm [5] | effect mortality or growth inhibition at 200 ppm [6] | mortality at 200 ppm [8]

CCn1c(C(F)(F)F)cc2nc(-c3nc(C(=O)O)ccc3S(=O)(=O)CC)n(C)c2c1=O [Compound A4, 6-[5-ethyl-3-methyl-4-oxo-6-(trifluoromethyl)imidazo[4,5-c]pyridin-2-yl]-5-ethylsulfonyl-pyridine-2-carboxylic acid]
≥ 80%: mortality at 200 ppm [7]

CCn1c(C(F)(F)F)cc2nc(-c3ncc(N(C)S(C)(=O)=O)cc3S(=O)(=O)CC)n(C)c2c1=O [Compound A13, N-[6-[5-ethyl-3-methyl-4-oxo-6-(trifluoromethyl)imidazo[4,5-c]pyridin-2-yl]-5-ethylsulfonyl-3-pyridyl]-N-methyl-methanesulfonamide]
≥ 80%: percent effect (mortality or growth inhibition) at 200 ppm [1] | percent control (mortality, anti-feeding effect or growth inhibition) at 200 ppm [3] | percent effect (mortality or growth inhibition) at 200 ppm [4] | mortality at 200 ppm [7] | mortality at 200 ppm [8]

CCn1c(C(F)(F)F)cc2nc(-c3nc(NCC(F)(F)F)ccc3S(=O)(=O)CC)n(C)c2c1=O [Compound A34, 5-ethyl-2-[3-ethylsulfonyl-6-(2,2,2-trifluoroethylamino)-2-pyridyl]-3-methyl-6-(trifluoromethyl)imidazo[4,5-c]pyridin-4-one]
≥ 80%: percent effect (mortality or growth inhibition) at 200 ppm [1] | percent control (mortality, anti-feeding effect or growth inhibition) at 200 ppm [3] | effect mortality or growth inhibition at 200 ppm [6] | mortality at 200 ppm [7]

CCn1c(C(F)(F)F)cc2nc(-c3ncc(N)cc3S(=O)(=O)CC)n(C)c2c1=O [Compound A5, 2-(5-amino-3-ethylsulfonyl-2-pyridyl)-5-ethyl-3-methyl-6-(trifluoromethyl)imidazo[4,5-c]pyridin-4-one]
≥ 80%: percent effect (mortality or growth inhibition) at 200 ppm [1] | percent control (mortality, anti-feeding effect or growth inhibition) at 200 ppm [3] | pest or weed control at 200 ppm [10] | effect mortality or growth inhibition at 200 ppm [6] | mortality at 200 ppm [8]

CCn1c(C(F)(F)F)cc2nc(-c3ncc(C(=O)NC4CC4)cc3S(=O)(=O)CC)n(C)c2c1=O [Compound A19, N-cyclopropyl-6-[5-ethyl-3-methyl-4-oxo-6-(trifluoromethyl)imidazo[4,5-c]pyridin-2-yl]-5-ethylsulfonyl-pyridine-3-carboxamide]
≥ 80%: percent effect (mortality or growth inhibition) at 200 ppm [1] | mortality at 24 ppm [2] | percent effect (mortality or growth inhibition) at 200 ppm [4] | mortality at 200 ppm [7]

CCn1c(C(F)(F)F)cc2nc(-c3nc(N(CC(F)(F)F)C(=O)C4CC4)ccc3S(=O)(=O)CC)n(C)c2c1=O [Compound A32, N-[6-[5-ethyl-3-methyl-4-oxo-6-(trifluoromethyl)imidazo[4,5-c]pyridin-2-yl]-5-ethylsulfonyl-2-pyridyl]-N-(2,2,2-trifluoroethyl)cyclopropanecarboxamide]
≥ 80%: percent effect (mortality or growth inhibition) at 200 ppm [1] | percent control (mortality, anti-feeding effect or growth inhibition) at 200 ppm [3] | effect mortality or growth inhibition at 200 ppm [6] | mortality at 200 ppm [7]

CCS(=O)(=O)c1ccc(N)nc1-c1nc2cc(C(F)(F)F)n(C3CC3)c(=O)c2n1C [Compound A42, 2-(6-amino-3-ethylsulfonyl-2-pyridyl)-5-cyclopropyl-3-methyl-6-(trifluoromethyl)imidazo[4,5-c]pyridin-4-one]
≥ 80%: percent effect (mortality or growth inhibition) at 200 ppm [1] | mortality at 24 ppm [2] | percent control (mortality, anti-feeding effect or growth inhibition) at 200 ppm [3] | percent effect (mortality, anti-feeding or growth inhibition) at 12.5 ppm [9] | percent effect (mortality or growth inhibition) at 200 ppm [4] | mortality at 200 ppm [5] | effect mortality or growth inhibition at 200 ppm [6] | mortality at 200 ppm [7] | mortality at 200 ppm [8]

CCn1c(C(F)(F)F)cc2nc(-c3ncc(NC4(C#N)CC4)cc3S(=O)(=O)CC)n(C)c2c1=O [Compound A24, 1-[[6-[5-ethyl-3-methyl-4-oxo-6-(trifluoromethyl)imidazo[4,5-c]pyridin-2-yl]-5-ethylsulfonyl-3-pyridyl]amino]cyclopropanecarbonitrile]
≥ 80%: percent effect (mortality or growth inhibition) at 200 ppm [1] | percent control (mortality, anti-feeding effect or growth inhibition) at 200 ppm [3] | percent effect (mortality or growth inhibition) at 200 ppm [4] | effect mortality or growth inhibition at 200 ppm [6] | mortality at 200 ppm [7]

CCn1c(C(F)(F)F)cc2nc(-c3nc(N(C)C4CC4)ccc3S(=O)(=O)CC)n(C)c2c1=O [Compound A12, 2-[6-[cyclopropyl(methyl)amino]-3-ethylsulfonyl-2-pyridyl]-5-ethyl-3-methyl-6-(trifluoromethyl)imidazo[4,5-c]pyridin-4-one]
≥ 80%: percent effect (mortality or growth inhibition) at 200 ppm [1] | percent control (mortality, anti-feeding effect or growth inhibition) at 200 ppm [3] | pest or weed control at 200 ppm [10] | percent effect (mortality or growth inhibition) at 200 ppm [4] | mortality at 200 ppm [5] | effect mortality or growth inhibition at 200 ppm [6] | mortality at 200 ppm [8]

CCn1c(C(F)(F)F)cc2nc(-c3nc(NC(=O)OC(C)(C)C)ccc3S(=O)(=O)CC)n(C)c2c1=O [Compound A66, tert-butyl N-[6-[5-ethyl-3-methyl-4-oxo-6-(trifluoromethyl)imidazo[4,5-c]pyridin-2-yl]-5-ethylsulfonyl-2-pyridyl]carbamate]
≥ 80%: percent effect (mortality or growth inhibition) at 200 ppm [1] | percent control (mortality, anti-feeding effect or growth inhibition) at 200 ppm [3] | percent effect (mortality, anti-feeding or growth inhibition) at 12.5 ppm [9] | mortality at 200 ppm [5] | effect mortality or growth inhibition at 200 ppm [6] | mortality at 200 ppm [7]

CCn1c(C(F)(F)F)cc2nc(-c3ncc(NC(=O)OC(C)(C)C)cc3S(=O)(=O)CC)n(C)c2c1=O [Compound A64, tert-butyl N-[6-[5-ethyl-3-methyl-4-oxo-6-(trifluoromethyl)imidazo[4,5-c]pyridin-2-yl]-5-ethylsulfonyl-3-pyridyl]carbamate]
≥ 80%: percent effect (mortality or growth inhibition) at 200 ppm [1] | percent control (mortality, anti-feeding effect or growth inhibition) at 200 ppm [3] | percent effect (mortality or growth inhibition) at 200 ppm [4] | mortality at 200 ppm [5] | mortality at 200 ppm [7]
